# Source: patent US20220339143A1, “TAK-925 FOR USE IN TREATING NARCOLEPSY” (Takeda Pharmaceutical Company Limited, priority 2019, published 2022)
# Like-named read-outs stand apart in the source and are kept apart here.
# Assay: Single dose PK in healthy subjects (Cohorts 1, 2, S1 and S2), plasma
# Assay type: in vivo, human
# Settings: human, plasma, iv; for concentration at 3 h after end of infusion: 3 hr After End of Infusions; for concentration at 4 h after end of infusion: 4 hr After End of Infusions; for concentration at 6 h after end of infusion: 6 hr After End of Infusions; for concentration at 10 h after end of infusion: 10 hr After End of Infusions; for concentration at 15 h after end of infusion: 15 hr After End of Infusions
# Procedure: This study investigates (i) the safety and tolerability of Compound A (methyl (2R,3S)-3-((methylsulfonyl)amino)-2-(((cis-4-phenylcyclohexyl)oxy)methyl)piperidine-1-carboxylate) when a single dose given as a 9 hour continuous IV infusion is administered to healthy adults, healthy elderly subjects and patients with narcolepsy type 1 (NT1); (ii) the pharmacokinetics of Compound A when a single dose given as a 9 hour continuous IV infusion is administered to healthy adults, healthy elderly subjects and patients with narcolepsy type 1; and (iii) the pharmacodynamics (PD) effects of Compound A, primarily by evaluation of the sleep latency on MWT when a single dose given as a 9 hour continuous IV infusion is administered to patients with narcolepsy type 1.
# Pharmacokinetics: Concentrations of Compound A in plasma, and CSF, and pharmacokinetics parameters.
# On average, the time to reach the plateau appeared to be approximately 3 to 4 hours after the start of infusion. […] After switching off the IV infusion, Compound A plasma concentrations declined rapidly and in a biphasic manner with a mean terminal disposition phase t1/2z ranging approximately from 3.4 to 5.1 hours across all doses. […] Table 5 provides a summary of plasma concentrations of Compound A after a single IV infusion in healthy subjects. Table 6 provides a summary of pharmacokinetic parameters of Compound A after a single IV infusion in healthy subjects.
# [1] = 240 mg, 240 mg single IV infusion, read-out: Plasma Concentration of Cmpd A, Maximum
# [2] = 240 mg, 240 mg single IV infusion, read-out: Plasma Concentration of Cmpd A, Median
# [3] = 240 mg, 240 mg single IV infusion, read-out: Plasma Concentration of Cmpd A, Q3
# [4] = 240 mg, 240 mg single IV infusion, read-out: Plasma Concentration of Cmpd A, Q1
compound,measurement,setting,value
"COC(=O)N1CCC[C@H](NS(C)(=O)=O)[C@@H]1CO[C@H]1CC[C@@H](c2ccccc2)CC1 [Compound A, methyl (2R,3S)-3-((methylsulfonyl)amino)-2-(((cis-4-phenylcyclohexyl)oxy)methyl)piperidine-1-carboxylate]",Cmax,"134.4 mg, 134.4 mg single IV infusion, healthy subjects, read-out: Cmax Geo Mean",305 ng/mL
same,Cmax,"134.4 mg, 134.4 mg single IV infusion, healthy subjects, read-out: Cmax Mean",308 ng/mL
same,Cmax,"134.4 mg, 134.4 mg single IV infusion, healthy subjects, read-out: Cmax Median",314 ng/mL
same,Vd,"134.4 mg, 134.4 mg single IV infusion, healthy subjects, read-out: Vss Mean",88.5 L
same,Vd,"134.4 mg, 134.4 mg single IV infusion, healthy subjects, read-out: Vss Median",87 L
same,Vd,"134.4 mg, 134.4 mg single IV infusion, healthy subjects, read-out: Vz Mean",285 L
same,Vd,"134.4 mg, 134.4 mg single IV infusion, healthy subjects, read-out: Vz Median",276 L
same,Tmax,"134.4 mg, 134.4 mg single IV infusion, healthy subjects, read-out: tmax Mean",6.33 h
same,Tmax,"134.4 mg, 134.4 mg single IV infusion, healthy subjects, read-out: tmax Median",6.5 h
same,AUC,"180 mg, 180 mg single IV infusion, healthy subjects, read-out: AUC24 Geo Mean",2990 ng·h/mL
same,AUC,"180 mg, 180 mg single IV infusion, healthy subjects, read-out: AUC24 Mean",3000 ng·h/mL
same,AUC,"180 mg, 180 mg single IV infusion, healthy subjects, read-out: AUC24 Median",3040 ng·h/mL
same,AUC(0-inf),"180 mg, 180 mg single IV infusion, healthy subjects, read-out: AUCinf Geo Mean",3010 ng·h/mL
same,AUC(0-inf),"180 mg, 180 mg single IV infusion, healthy subjects, read-out: AUCinf Mean",3020 ng·h/mL
same,AUC(0-inf),"180 mg, 180 mg single IV infusion, healthy subjects, read-out: AUCinf Median",3050 ng·h/mL
same,AUC(0-t),"180 mg, 180 mg single IV infusion, healthy subjects, read-out: AUClast Geo Mean",2990 ng·h/mL
same,AUC(0-t),"180 mg, 180 mg single IV infusion, healthy subjects, read-out: AUClast Mean",3000 ng·h/mL
same,AUC(0-t),"180 mg, 180 mg single IV infusion, healthy subjects, read-out: AUClast Median",3040 ng·h/mL
same,clearance,"180 mg, 180 mg single IV infusion, healthy subjects, read-out: CL Mean (converted)",997 mL/min
same,clearance,"180 mg, 180 mg single IV infusion, healthy subjects, read-out: CL Median (converted)",985 mL/min
same,concentration at 9 h,"180 mg, 180 mg single IV infusion, healthy subjects, read-out: Ceoi Geo Mean",324 ng/mL
same,concentration at 9 h,"180 mg, 180 mg single IV infusion, healthy subjects, read-out: Ceoi Mean",325 ng/mL
same,concentration at 9 h,"180 mg, 180 mg single IV infusion, healthy subjects, read-out: Ceoi Median",316 ng/mL
same,Cmax,"180 mg, 180 mg single IV infusion, healthy subjects, read-out: Cmax Geo Mean",344 ng/mL
same,Cmax,"180 mg, 180 mg single IV infusion, healthy subjects, read-out: Cmax Mean",345 ng/mL
same,Cmax,"180 mg, 180 mg single IV infusion, healthy subjects, read-out: Cmax Median",358 ng/mL
same,Vd,"180 mg, 180 mg single IV infusion, healthy subjects, read-out: Vss Mean",90.8 L
same,Vd,"180 mg, 180 mg single IV infusion, healthy subjects, read-out: Vss Median",81.5 L
same,Vd,"180 mg, 180 mg single IV infusion, healthy subjects, read-out: Vz Mean",291 L
same,Vd,"180 mg, 180 mg single IV infusion, healthy subjects, read-out: Vz Median",268 L
same,Tmax,"180 mg, 180 mg single IV infusion, healthy subjects, read-out: tmax Mean",6.33 h
same,Tmax,"180 mg, 180 mg single IV infusion, healthy subjects, read-out: tmax Median",6.5 h
same,AUC,"240 mg, 240 mg single IV infusion, healthy subjects, read-out: AUC24 Geo Mean",4540 ng·h/mL
same,AUC,"240 mg, 240 mg single IV infusion, healthy subjects, read-out: AUC24 Mean",4580 ng·h/mL
same,AUC,"240 mg, 240 mg single IV infusion, healthy subjects, read-out: AUC24 Median",4400 ng·h/mL
same,AUC(0-inf),"240 mg, 240 mg single IV infusion, healthy subjects, read-out: AUCinf Geo Mean",4580 ng·h/mL
same,AUC(0-inf),"240 mg, 240 mg single IV infusion, healthy subjects, read-out: AUCinf Mean",4630 ng·h/mL
same,AUC(0-inf),"240 mg, 240 mg single IV infusion, healthy subjects, read-out: AUCinf Median",4430 ng·h/mL
same,AUC(0-t),"240 mg, 240 mg single IV infusion, healthy subjects, read-out: AUClast Geo Mean",4540 ng·h/mL
same,AUC(0-t),"240 mg, 240 mg single IV infusion, healthy subjects, read-out: AUClast Mean",4580 ng·h/mL
same,AUC(0-t),"240 mg, 240 mg single IV infusion, healthy subjects, read-out: AUClast Median",4400 ng·h/mL
same,clearance,"240 mg, 240 mg single IV infusion, healthy subjects, read-out: CL Mean (converted)",880 mL/min
same,clearance,"240 mg, 240 mg single IV infusion, healthy subjects, read-out: CL Median (converted)",906 mL/min
same,concentration at 9 h,"240 mg, 240 mg single IV infusion, healthy subjects, read-out: Ceoi Geo Mean",493 ng/mL
same,concentration at 9 h,"240 mg, 240 mg single IV infusion, healthy subjects, read-out: Ceoi Mean",497 ng/mL
same,concentration at 9 h,"240 mg, 240 mg single IV infusion, healthy subjects, read-out: Ceoi Median",481 ng/mL
same,Cmax,"240 mg, 240 mg single IV infusion, healthy subjects, read-out: Cmax Geo Mean",506 ng/mL
same,Cmax,"240 mg, 240 mg single IV infusion, healthy subjects, read-out: Cmax Mean",512 ng/mL
same,Cmax,"240 mg, 240 mg single IV infusion, healthy subjects, read-out: Cmax Median",483 ng/mL
same,Vd,"240 mg, 240 mg single IV infusion, healthy subjects, read-out: Vss Mean",97.5 L
same,Vd,"240 mg, 240 mg single IV infusion, healthy subjects, read-out: Vz Mean",313 L
same,Vd,"240 mg, 240 mg single IV infusion, healthy subjects, read-out: Vz Median",293 L
same,Tmax,"240 mg, 240 mg single IV infusion, healthy subjects, read-out: tmax Mean",5.33 h
same,Tmax,"240 mg, 240 mg single IV infusion, healthy subjects, read-out: tmax Median",4 h
same,concentration at 0.5 h,"240 mg, 240 mg single IV infusion, 0.5 hr, read-out: Plasma Concentration of Cmpd A, Maximum",400 ng/mL
same,concentration at 0.5 hr,"240 mg, 240 mg single IV infusion, 0.5 hr, read-out: Plasma Concentration of Cmpd A, Median",264 ng/mL
same,concentration at 0.5 hr,"240 mg, 240 mg single IV infusion, 0.5 hr, read-out: Plasma Concentration of Cmpd A, Q3",368 ng/mL
same,concentration at 1 h,"240 mg, 240 mg single IV infusion, 1 hr, read-out: Plasma Concentration of Cmpd A, Maximum",465 ng/mL
same,concentration at 1 hr,"240 mg, 240 mg single IV infusion, 1 hr, read-out: Plasma Concentration of Cmpd A, Median",318 ng/mL
same,concentration at 1 hr,"240 mg, 240 mg single IV infusion, 1 hr, read-out: Plasma Concentration of Cmpd A, Q3",418 ng/mL
same,concentration at 1.5 h,"240 mg, 240 mg single IV infusion, 1.5 hr, read-out: Plasma Concentration of Cmpd A, Maximum",480 ng/mL
same,concentration at 1.5 hr,"240 mg, 240 mg single IV infusion, 1.5 hr, read-out: Plasma Concentration of Cmpd A, Median",370 ng/mL
same,concentration at 1.5 hr,"240 mg, 240 mg single IV infusion, 1.5 hr, read-out: Plasma Concentration of Cmpd A, Q3",463 ng/mL
same,concentration at 2 h,"240 mg, 240 mg single IV infusion, 2 hr, read-out: Plasma Concentration of Cmpd A, Maximum",482 ng/mL
same,concentration at 2 hr,"240 mg, 240 mg single IV infusion, 2 hr, read-out: Plasma Concentration of Cmpd A, Median",399 ng/mL
same,concentration at 2 hr,"240 mg, 240 mg single IV infusion, 2 hr, read-out: Plasma Concentration of Cmpd A, Q3",452 ng/mL
same,concentration at 3 h after end of infusion,[1],91 ng/mL
same,concentration at 3 h after end of infusion,[2],75.5 ng/mL
same,concentration at 3 h after end of infusion,[3],87.1 ng/mL
same,concentration at 3 h,"240 mg, 240 mg single IV infusion, 3 hr, read-out: Plasma Concentration of Cmpd A, Maximum",582 ng/mL
same,concentration at 3 hr,"240 mg, 240 mg single IV infusion, 3 hr, read-out: Plasma Concentration of Cmpd A, Median",422 ng/mL
same,concentration at 3 h,"240 mg, 240 mg single IV infusion, 3 hr, read-out: Plasma Concentration of Cmpd A, Q3",515 ng/mL
same,concentration at 4 h after end of infusion,[1],65.1 ng/mL
same,concentration at 4 h after end of infusion,[2],56.5 ng/mL
same,concentration at 4 h after end of infusion,[4],53.1 ng/mL
same,concentration at 4 h after end of infusion,[3],62.7 ng/mL
same,concentration at 4 h,"240 mg, 240 mg single IV infusion, 4 hr, read-out: Plasma Concentration of Cmpd A, Maximum",650 ng/mL
same,concentration at 4 hr,"240 mg, 240 mg single IV infusion, 4 hr, read-out: Plasma Concentration of Cmpd A, Median",459 ng/mL
same,concentration at 4 h,"240 mg, 240 mg single IV infusion, 4 hr, read-out: Plasma Concentration of Cmpd A, Q3",579 ng/mL
same,concentration at 6 h after end of infusion,[1],38.2 ng/mL
same,concentration at 6 h after end of infusion,[2],28.4 ng/mL
same,concentration at 6 h after end of infusion,[4],23 ng/mL
same,concentration at 6 h after end of infusion,[3],36.9 ng/mL
same,concentration at 6 h,"240 mg, 240 mg single IV infusion, 6 hr, read-out: Plasma Concentration of Cmpd A, Maximum",532 ng/mL
same,concentration at 6 hr,"240 mg, 240 mg single IV infusion, 6 hr, read-out: Plasma Concentration of Cmpd A, Median",410 ng/mL
same,concentration at 6 h,"240 mg, 240 mg single IV infusion, 6 hr, read-out: Plasma Concentration of Cmpd A, Q3",514 ng/mL
same,concentration at 8 h,"240 mg, 240 mg single IV infusion, 8 hr, read-out: Plasma Concentration of Cmpd A, Maximum",562 ng/mL
same,concentration at 8 hr,"240 mg, 240 mg single IV infusion, 8 hr, read-out: Plasma Concentration of Cmpd A, Median",470 ng/mL
same,concentration at 8 hr,"240 mg, 240 mg single IV infusion, 8 hr, read-out: Plasma Concentration of Cmpd A, Q3",542 ng/mL
same,concentration at 9 h,"240 mg, 240 mg single IV infusion, 9 hr, read-out: Plasma Concentration of Cmpd A, Maximum",613 ng/mL
same,concentration at 9 hr,"240 mg, 240 mg single IV infusion, 9 hr, read-out: Plasma Concentration of Cmpd A, Median",481 ng/mL
same,concentration at 9 hr,"240 mg, 240 mg single IV infusion, 9 hr, read-out: Plasma Concentration of Cmpd A, Q3",539 ng/mL
same,concentration at 10 h after end of infusion,[1],18.6 ng/mL
same,concentration at 10 h after end of infusion,[2],16.6 ng/mL
same,concentration at 10 h after end of infusion,[4],10.3 ng/mL
same,concentration at 10 h after end of infusion,[3],17.5 ng/mL
same,concentration at 15 h after end of infusion,[1],9.71 ng/mL
same,concentration at 15 h after end of infusion,[2],7.64 ng/mL
same,concentration at 15 h after end of infusion,[4],3.39 ng/mL
same,concentration at 15 h after end of infusion,[3],8.82 ng/mL
same,clearance,"IV administration, healthy subjects, read-out: mean estimates of plasma clearance",717 to 1000 mL/min
